The source of these data is patent publication US20260028365A1 (BIOGEN MA INC., priority 2022, published 2026).

By IC50 is commonly meant the concentration that inhibits the measured activity by half.

One test addresses JH2 domain of human Tyk2 (Homo sapiens (Human), UniProt P29597). Nature of the test: JH2 Biochemical Assay (TR-FRET probe displacement). The conditions noted are these: JH2 domain of human Tyk2, TR-FRET probe displacement. Format: binding. For orientation: Time-resolved FRET reads energy transfer from a long-lived donor to a nearby acceptor.
The target in the next test is Tyk2 (Homo sapiens (Human), UniProt P29597). Nature of the test: pSTAT4 Cell Assay (MSD, NK92 cells). Format: cell-based. The conditions noted are these: MSD.
Sequence of Tyk2 (P29597 whole entry): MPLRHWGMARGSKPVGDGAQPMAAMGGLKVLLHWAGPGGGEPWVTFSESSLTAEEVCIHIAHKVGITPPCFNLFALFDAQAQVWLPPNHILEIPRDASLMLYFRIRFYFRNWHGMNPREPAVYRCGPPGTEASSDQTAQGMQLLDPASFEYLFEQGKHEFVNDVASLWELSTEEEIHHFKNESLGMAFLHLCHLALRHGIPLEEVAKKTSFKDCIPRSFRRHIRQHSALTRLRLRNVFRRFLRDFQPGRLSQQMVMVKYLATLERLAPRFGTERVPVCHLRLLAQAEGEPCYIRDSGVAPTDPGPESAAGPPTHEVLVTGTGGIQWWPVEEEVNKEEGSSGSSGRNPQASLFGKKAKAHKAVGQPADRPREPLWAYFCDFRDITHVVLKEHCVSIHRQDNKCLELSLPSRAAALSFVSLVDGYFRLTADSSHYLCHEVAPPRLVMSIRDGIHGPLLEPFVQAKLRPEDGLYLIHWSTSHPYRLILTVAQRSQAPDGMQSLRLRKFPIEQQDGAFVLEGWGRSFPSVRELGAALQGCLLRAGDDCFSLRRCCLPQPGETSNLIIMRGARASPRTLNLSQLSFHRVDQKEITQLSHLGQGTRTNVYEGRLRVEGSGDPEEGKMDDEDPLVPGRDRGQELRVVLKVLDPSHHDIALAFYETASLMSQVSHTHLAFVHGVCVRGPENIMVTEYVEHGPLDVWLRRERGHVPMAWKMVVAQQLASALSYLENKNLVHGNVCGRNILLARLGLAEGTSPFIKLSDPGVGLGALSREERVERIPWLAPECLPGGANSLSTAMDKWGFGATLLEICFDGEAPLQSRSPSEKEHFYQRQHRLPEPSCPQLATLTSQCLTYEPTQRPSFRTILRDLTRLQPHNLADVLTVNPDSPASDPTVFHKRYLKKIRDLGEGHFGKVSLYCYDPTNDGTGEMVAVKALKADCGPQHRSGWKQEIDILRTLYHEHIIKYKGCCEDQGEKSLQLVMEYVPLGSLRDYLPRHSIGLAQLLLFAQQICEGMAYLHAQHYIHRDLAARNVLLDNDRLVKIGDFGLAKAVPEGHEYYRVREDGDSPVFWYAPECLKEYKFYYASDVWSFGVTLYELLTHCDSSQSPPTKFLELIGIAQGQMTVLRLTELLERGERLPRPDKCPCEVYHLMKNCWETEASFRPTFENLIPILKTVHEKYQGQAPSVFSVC

Sequence of JH2 domain of human Tyk2 (P29597 575-876): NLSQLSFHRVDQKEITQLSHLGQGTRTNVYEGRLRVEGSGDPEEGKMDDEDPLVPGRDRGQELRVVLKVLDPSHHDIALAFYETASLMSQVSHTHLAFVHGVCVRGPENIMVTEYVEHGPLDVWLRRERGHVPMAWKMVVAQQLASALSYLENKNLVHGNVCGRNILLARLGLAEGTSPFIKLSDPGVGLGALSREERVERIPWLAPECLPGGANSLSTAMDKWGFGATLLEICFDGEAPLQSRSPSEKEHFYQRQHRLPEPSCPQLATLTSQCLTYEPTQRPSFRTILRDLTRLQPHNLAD

`COCCn1ncc(-c2cnc(NC(C)=O)cc2Nc2cc(OC3CC3)nc(C(C)(F)F)n2)n1` [Example 587, N-(4-((6-cyclopropoxy-2-(1,1-difluoroethyl)pyrimidin-4-yl)amino)-5-(2-(2-methoxyethyl)-2H-1,2,3-triazol-4-yl)pyridin-2-yl)acetamide]: the IC50 on JH2 domain of human Tyk2 and at Tyk2 was not above 10 nM in each case.
On to `COCc1ccc(-c2cnc(NC(C)=O)cc2Nc2cncc(OC(F)F)n2)nc1` [Example 588, N-(4′-((6-(difluoromethoxy)pyrazin-2-yl)amino)-5-(methoxymethyl)-[2,3′-bipyridin]-6′-yl)acetamide], for which the IC50 at JH2 domain of human Tyk2 was not above 10 nM; at Tyk2, 10 to 100 nM.
The like results for `CC(=O)Nc1cc(Nc2cc(C)nc(C(C)(F)F)n2)c(-c2ccccn2)cn1` [Example 591, N-(4′-((2-(1,1-difluoroethyl)-6-methylpyrimidin-4-yl)amino)-[2,3′-bipyridin]-6′-yl)acetamide] were, in that order, not above 10 nM and not above 10 nM.
The like results for `CC(=O)Nc1cc(Nc2cc(C)nc(C(C)(F)F)n2)c(-c2nc(C)co2)cn1` [Example 592, N-(4-((2-(1,1-difluoroethyl)-6-methylpyrimidin-4-yl)amino)-5-(4-methyloxazol-2-yl)pyridin-2-yl)acetamide] were, in that order, not above 10 nM and 10 to 100 nM.
For `CC(=O)Nc1cc(Nc2cc(C)nc(C(C)(F)F)n2)c(-c2ccc(C)cn2)cn1` [Example 593, N-(4′-((2-(1,1-difluoroethyl)-6-methylpyrimidin-4-yl)amino)-5-methyl-[2,3′-bipyridin]-6′-yl)acetamide], the IC50 at JH2 domain of human Tyk2 and on Tyk2 was not above 10 nM each time.
Consider `CC(=O)Nc1cc(Nc2cc(C)nc(C(C)(F)F)n2)c(-c2ncc(C)cn2)cn1` [Example 595, N-(4-((2-(1,1-difluoroethyl)-6-methylpyrimidin-4-yl)amino)-5-(5-methylpyrimidin-2-yl)pyridin-2-yl)acetamide], for which the IC50 is not above 10 nM on JH2 domain of human Tyk2 and 10 to 100 nM on Tyk2.
Take `CC(=O)Nc1cc(Nc2cc(C)nc(C(C)(F)F)n2)c(-n2ccc(C)n2)cn1` [Example 597, N-(4-((2-(1,1-difluoroethyl)-6-methylpyrimidin-4-yl)amino)-5-(3-methyl-1H-pyrazol-1-yl)pyridin-2-yl)acetamide]: the 50% inhibitory concentration (IC50) is not above 10 nM at JH2 domain of human Tyk2 and 10 to 100 nM against Tyk2.
Regarding `COc1ccc(-c2cnc(NC(C)=O)cc2Nc2cc(C)nc(C(C)(F)F)n2)nc1` [Example 599, N-(4′-((2-(1,1-difluoroethyl)-6-methylpyrimidin-4-yl)amino)-5-methoxy-[2,3′-bipyridin]-6′-yl)acetamide], the IC50 at JH2 domain of human Tyk2 and on Tyk2 was not above 10 nM throughout.
For the compound `CC(=O)Nc1cc(Nc2cc(C)nc(C(C)(F)F)n2)c(-c2cnc(C)o2)cn1` [Example 600, N-(4-((2-(1,1-difluoroethyl)-6-methylpyrimidin-4-yl)amino)-5-(2-methyloxazol-5-yl)pyridin-2-yl)acetamide], the IC50 at JH2 domain of human Tyk2 was in the range of 10 to 100 nM; at Tyk2, 100 to 1000 nM.
Turning to `CC(=O)Nc1cc(Nc2cc(C)nc(C(C)(F)F)n2)c(-c2cn(C)c(C#N)n2)cn1` [Example 601, N-(5-(2-cyanO1-methyl-1H-imidazol-4-yl)-4-((2-(1,1-difluoroethyl)-6-methylpyrimidin-4-yl)amino)pyridin-2-yl)acetamide], the IC50 on JH2 domain of human Tyk2 and against Tyk2 was not above 10 nM throughout.
As to `CC(=O)Nc1cc(Nc2cc(C)nc(C(C)(F)F)n2)c(-c2ccn(C(C)C)n2)cn1` [Example 603, N-(4-((2-(1,1-difluoroethyl)-6-methylpyrimidin-4-yl)amino)-5-(1-isopropyl-1H-pyrazol-3-yl)pyridin-2-yl)acetamide], the IC50 on JH2 domain of human Tyk2 and at Tyk2 was not above 10 nM each time.
On to `CC(=O)Nc1cc(Nc2cc(C)nc(C(C)(F)F)n2)c(-c2nccs2)cn1` [Example 605, N-(4-((2-(1,1-difluoroethyl)-6-methylpyrimidin-4-yl)amino)-5-(thiazol-2-yl)pyridin-2-yl)acetamide], for which the IC50 was not above 10 nM at JH2 domain of human Tyk2 and 10 to 100 nM on Tyk2.
The corresponding values for `CC(=O)Nc1cc(Nc2cc(C)nc(C(C)(F)F)n2)c(-c2csc(C)n2)cn1` [Example 606, N-(4-((2-(1,1-difluoroethyl)-6-methylpyrimidin-4-yl)amino)-5-(2-methylthiazol-4-yl)pyridin-2-yl)acetamide] are not above 10 nM and not above 10 nM.
As for `CC(=O)Nc1cc(Nc2cc(C)nc(C(C)(F)F)n2)c(-c2cn(C)nn2)cn1` [Example 607, N-(4-((2-(1,1-difluoroethyl)-6-methylpyrimidin-4-yl)amino)-5-(1-methyl-1H-1,2,3-triazol-4-yl)pyridin-2-yl)acetamide], the IC50 at JH2 domain of human Tyk2 and on Tyk2 was not above 10 nM in each case.
In the case of `CC(=O)Nc1cc(Nc2cc(C)nc(C(C)(F)F)n2)c(-c2cnn(C(C)C)n2)cn1` [Example 610, N-(4-((2-(1,1-difluoroethyl)-6-methylpyrimidin-4-yl)amino)-5-(2-isopropyl-2H-1,2,3-triazol-4-yl)pyridin-2-yl)acetamide], the IC50 at JH2 domain of human Tyk2 and on Tyk2 was not above 10 nM in each case.
In the case of `CC(=O)Nc1cc(Nc2cc(C)nc(C(C)(F)F)n2)c(-c2nnc(C(C)(C)C)s2)cn1` [Example 611, N-(5-(5-(tert-butyl)-1,3,4-thiadiazol-2-yl)-4-((2-(1,1-difluoroethyl)-6-methylpyrimidin-4-yl)amino)pyridin-2-yl)acetamide], the IC50 on JH2 domain of human Tyk2 and against Tyk2 was not above 10 nM in each case.
As for `CC(=O)Nc1cc(Nc2cc(C)nc(C(C)(F)F)n2)c(-c2csc(C(C)C)n2)cn1` [Example 612, N-(4-((2-(1,1-difluoroethyl)-6-methylpyrimidin-4-yl)amino)-5-(2-isopropylthiazol-4-yl)pyridin-2-yl)acetamide], the IC50 at JH2 domain of human Tyk2 and against Tyk2 was not above 10 nM each time.
Take `CCn1ccc(-c2cnc(NC(C)=O)cc2Nc2cc(C)nc(C(C)(F)F)n2)n1` [Example 613, N-(4-((2-(1,1-difluoroethyl)-6-methylpyrimidin-4-yl)amino)-5-(1-ethyl-1H-pyrazol-3-yl)pyridin-2-yl)acetamide]: the IC50 on JH2 domain of human Tyk2 and against Tyk2 was not above 10 nM in each case.
In the case of `CC(=O)Nc1cc(Nc2cc(C)nc(C(C)(F)F)n2)c(-c2ccn(CC3CC3)n2)cn1` [Example 614, N-(5-(1-(cyclopropylmethyl)-1H-pyrazol-3-yl)-4-((2-(1,1-difluoroethyl)-6-methylpyrimidin-4-yl)amino)pyridin-2-yl)acetamide], the IC50 at JH2 domain of human Tyk2 and against Tyk2 was not above 10 nM each time.
With `CCCn1ccc(-c2cnc(NC(C)=O)cc2Nc2cc(C)nc(C(C)(F)F)n2)n1` [Example 615, N-(4-((2-(1,1-difluoroethyl)-6-methylpyrimidin-4-yl)amino)-5-(1-propyl-1H-pyrazol-3-yl)pyridin-2-yl)acetamide], the IC50 at JH2 domain of human Tyk2 and on Tyk2 was not above 10 nM throughout.
`COc1nc(-c2cnc(NC(C)=O)cc2Nc2cc(C)nc(C(C)(F)F)n2)cs1` [Example 617, N-(4-((2-(1,1-difluoroethyl)-6-methylpyrimidin-4-yl)amino)-5-(2-methoxythiazol-4-yl)pyridin-2-yl)acetamide]: the IC50 on JH2 domain of human Tyk2 and against Tyk2 was not above 10 nM throughout.
Take `CC(=O)Nc1cc(Nc2cc(C)nc(C(C)(F)F)n2)c(-c2cc(C)n(C)n2)cn1` [Example 619, N-(4-((2-(1,1-difluoroethyl)-6-methylpyrimidin-4-yl)amino)-5-(1,5-dimethyl-1H-pyrazol-3-yl)pyridin-2-yl)acetamide]: the IC50 at JH2 domain of human Tyk2 and at Tyk2 was not above 10 nM each time.
As for `CC(=O)Nc1cc(Nc2cc(C)nc(C(C)(F)F)n2)c(-c2cccc(F)n2)cn1` [Example 623, N-(4′-((2-(1,1-difluoroethyl)-6-methylpyrimidin-4-yl)amino)-6-fluorO[2,3′-bipyridin]-6′-yl)acetamide], the IC50 at JH2 domain of human Tyk2 and on Tyk2 was not above 10 nM each time.
For the compound `CC(=O)Nc1cc(Nc2cc(C)nc(C(C)(F)F)n2)c(-c2cc(N(C)C)ccn2)cn1` [Example 627, N-(4′-((2-(1,1-difluoroethyl)-6-methylpyrimidin-4-yl)amino)-4-(dimethylamino)-[2,3′-bipyridin]-6′-yl)acetamide], the IC50 on JH2 domain of human Tyk2 was 100 to 1000 nM; at Tyk2 it was not below 1000 nM.
Consider `CC(=O)Nc1cc(Nc2cc(C)nc(C(C)(F)F)n2)c(-c2cccc(N3CCOCC3)n2)cn1` [Example 628, N-(4′-((2-(1,1-difluoroethyl)-6-methylpyrimidin-4-yl)amino)-6-morpholinO[2,3′-bipyridin]-6′-yl)acetamide], for which the IC50 at JH2 domain of human Tyk2 and at Tyk2 was not above 10 nM each time.
Turning to `CC(=O)Nc1cc(Nc2cc(C)nc(C(C)(F)F)n2)c(-c2cccc(C#N)n2)cn1` [Example 630, N-(6-cyanO4′-((2-(1,1-difluoroethyl)-6-methylpyrimidin-4-yl)amino)-[2,3′-bipyridin]-6′-yl)acetamide], the 50% inhibitory concentration (IC50) on JH2 domain of human Tyk2 and at Tyk2 was not above 10 nM each time.
Turning to `CC(=O)Nc1cc(Nc2cc(C)nc(C(C)(F)F)n2)c(-c2cc(C#N)ccn2)cn1` [Example 631, N-(4-cyanO4′-((2-(1,1-difluoroethyl)-6-methylpyrimidin-4-yl)amino)-[2,3′-bipyridin]-6′-yl)acetamide], the IC50 is not above 10 nM at JH2 domain of human Tyk2 and 10 to 100 nM against Tyk2.
As for `CC(=O)Nc1cc(Nc2cc(C)nc(C(C)(F)F)n2)c(-c2ncc(C#N)cc2F)cn1` [Example 632, N-(5-cyanO4′-((2-(1,1-difluoroethyl)-6-methylpyrimidin-4-yl)amino)-3-fluorO[2,3′-bipyridin]-6′-yl)acetamide], the IC50 was 10 to 100 nM at JH2 domain of human Tyk2 and not below 1000 nM against Tyk2.
The like results for `CC(=O)Nc1cc(Nc2cc(C)nc(C(C)(F)F)n2)c(-c2ccc(F)c(C#N)n2)cn1` [Example 633, N-(6-cyanO4′-((2-(1,1-difluoroethyl)-6-methylpyrimidin-4-yl)amino)-5-fluorO[2,3′-bipyridin]-6′-yl)acetamide] were, in that order, not above 10 nM and not above 10 nM.
